The values below come from the Deep4Chem optical property database.

The structures appear in SMILES notation.

A short description of the data set: solvent given as SMILES.

For the compound `F[B-]1(F)n2c(-c3ccccc3)cc(-c3ccccc3)c2N=C2C(c3ccccc3)=CC(c3ccccc3)=[N+]21`, the absorption maximum runs as follows: (in CC#N) 643 nm; (in ClC(Cl)Cl) 650 nm.

For the compound `c1ccc2c(c1)c1ccccc1n2-c1ccc(-c2nnc(-c3ccc(-n4c5ccccc5c5ccccc54)cc3)o2)cc1`, the absorption maximum (in Cc1ccccc1) turned out to be 343 nm.

With `C[n+]1cc2ccc3c[n+](C)c4ccccc4c3c2c2ccccc21`, the absorption maximum (in CC#N) turned out to be 465 nm.

`Cc1cc(C)c(-c2nnc(-c3ccc(-n4c5ccccc5c5ccccc54)c(C)c3)o2)c(C)c1`: the absorption maximum (in Cc1ccccc1) was 339 nm.

As for `CC1(C)C(=O)C=Cc2ccc(N3CCC3)cc21`, the absorption maximum (in O) is recorded as 387 nm.

Compound `O=Cc1ccc2ccc3cccc4ccc1c2c34` registered an absorption maximum (in C1CCOC1) of 391 nm; an absorption maximum (in CC#N) of 390 nm; an absorption maximum (in CCCCCC) of 387 nm; an absorption maximum (in CCO) of 389 nm; an absorption maximum (in CN(C)C=O) of 390 nm; an absorption maximum (in CO) of 389 nm. The absorption maximum is, setting by setting: (in Cc1ccccc1) 391 nm; (in ClCCl) 392 nm.

`CCN(C(C)=O)c1cc2c(cc1C)C(c1ccccc1C(=O)O)=C1CCCC(/C=C/C3=[N+](C)c4ccccc4C3(C)C)=C1O2` showed an absorption maximum (in CCO) of 656 nm.

In the case of `CC[N+]1=C(/C=C/C=C/C=C/C=C2/N(CCCCCC(=O)O)c3ccccc3C2(C)C)C(C)(C)c2cc(S(=O)(=O)[O-])ccc21`, the absorption maximum is 751 nm (in CO) and 745 nm (in O).

Regarding `COC(=O)c1ccc(/C=C2\C=C(c3ccc(OC)c(OC)c3)NC2=O)cc1`, the absorption maximum (in C1COCCO1) came out at 454 nm.

With `CCCC1=Cc2nc1ccc1[nH]c(cc1CCC)c1nc(c(OC(=O)CCCC(=O)OC(C)(C)C)cc3[nH]c2cc3CCC)C(CCC)=C1`, the absorption maximum (in Cc1ccccc1) worked out at 645 nm.

Where the note is “in ClCCl”, `c1ccc(N(c2ccccc2)c2ccc(-n3ccc4cc(-c5cccc6c5-c5ccccc5C6(c5ccccc5)c5ccccc5)ccc43)cc2)cc1` displayed an absorption maximum of 322 nm.

For the compound `N#Cc1c(N2CCCCC2)cc(-c2ccc3ccc4cccc5ccc2c3c45)c2c1C(=O)c1ccccc1-2`, the absorption maximum (in C1CCOC1) turned out to be 344 nm.

Consider `COc1ccc(C(=O)OCc2ccc3c4cccc5cccc(c6cccc2c63)c54)cc1`, for which the absorption maximum (in CCO) came out at 439 nm.

`CC(C)[Si]1(C(C)C)c2cc(N(C)C)ccc2-c2ccc(C(F)(F)F)cc21` showed an absorption maximum (in C1CCCCC1) of 331 nm; an absorption maximum (in CC#N) of 337 nm; an absorption maximum (in CCO) of 335 nm; an absorption maximum (in CCOCC) of 334 nm; an absorption maximum (in CS(C)=O) of 344 nm; an absorption maximum (in ClCCl) of 338 nm. Besides, for the setting “in c1ccccc1”, the absorption maximum is listed as 338 nm.

Where the note is “in ClCCl”, `CCCCCCOc1ccc2c(c1)-c1cc3c(cc1[Si]2(C)C)-c1ccccc1[Si]3(C)C` came in with an absorption maximum of 327 nm.

Compound `Cc1cc(C)c(C2=C3C=CC=[N+]3[B-]3(F)Oc4cc(O)cc5c6ccc(C)cc6c6cc2n3c6c45)c(C)c1` (centres undefined) came in with an absorption maximum (in ClC(Cl)Cl) of 629 nm.

Take `CCCCn1c2ccc(-c3ccc4ccccc4c3)cc2c2ccc3c4cc(-c5ccc6ccccc6c5)ccc4n(CCCC)c3c21`: the absorption maximum (in ClC(Cl)Cl) was determined as 327 nm.

Compound `c1ccc2c(c1)-c1ccccc1[Si]21c2ccccc2-c2cc3c(cc21)-c1ccccc1[Si]31c2ccccc2-c2ccccc21` yielded an absorption maximum (in ClCCl) of 329 nm.

In the case of `Ic1ccc(-c2c3ccc(=[N+]4CCCCC4)cc-3oc3cc(N4CCCCC4)ccc23)cc1`, the absorption maximum is, setting by setting: (in CCO) 568 nm; (in ClCCl) 570 nm.

`C1=Cc2ccccc2Cc2ccccc21` had an absorption maximum (in CC#N) of 285 nm and an absorption maximum (in CO) of 285 nm.

Take `CC(C)[Si](C#Cc1c2ccc(C(C)(C)C)cc2c(C#Cc2c3ccc(C(C)(C)C)cc3c(C#Cc3c4ccc(C(C)(C)C)cc4c(C#C[Si](C(C)C)(C(C)C)C(C)C)c4ccc(C(C)(C)C)cc34)c3ccc(C(C)(C)C)cc23)c2ccc(C(C)(C)C)cc12)(C(C)C)C(C)C`: the absorption maximum (in Cc1ccccc1) amounted to 570 nm.

As to `CC(C)(C)OC(=O)NCCCC(=O)OCc1ccc2c3cccc4cccc(c5cccc1c52)c43`, the absorption maximum (in CCO) stood at 439 nm.

The compound `CCOC(=O)c1csc2[n+]1[B-](F)(F)OC(c1ccc(N(C)C)cc1)=N2` displayed an absorption maximum (in C1CCOC1) of 404 nm, an absorption maximum (in CC#N) of 405 nm, an absorption maximum (in Cc1ccccc1) of 406 nm and an absorption maximum (in ClCCl) of 412 nm.

For the compound `CN(C)c1ccc(C2=Cc3ccccc3P2(=O)c2ccccc2)cc1` (centres undefined), the absorption maximum (in ClCCl) was found to be 413 nm.

In the case of `CCCCn1c2ccccc2c2ccc(C#Cc3ccc4ccc5cccc6ccc3c4c56)cc21`, the absorption maximum (in ClCCl) was 404 nm.

As for `c1ccc(-c2nc(-c3ccc(-c4nc(-c5ccccc5)c(-c5ccccc5)o4)cc3)oc2-c2ccccc2)cc1`, the absorption maximum (in C1COCCO1) stood at 358 nm.

For the compound `Cc1ccc2c(c1)c1cc(Br)ccc1n2-c1c(C#N)c(-n2c3ccc(Br)cc3c3cc(Br)ccc32)c(-n2c3ccc(Br)cc3c3cc(Br)ccc32)c(C#N)c1-n1c2ccc(Br)cc2c2cc(Br)ccc21`, the absorption maximum (in Cc1ccccc1) is 339 nm.

`COC(=O)/C(C#N)=c1\s/c(=c2/s/c(=C(/C#N)C(=O)OC)c3cc(-c4ccc(OC)cc4)sc23)c2sc(-c3ccc(OC)cc3)cc12` had an absorption maximum (in Cc1ccccc1) of 628 nm.

For `Clc1nc(Nc2ccccc2)nc(Nc2ccc3cc4ccccc4cc3c2)n1`, the absorption maximum came to 398 nm (in C1COCCO1), 397 nm (in CC#N), 398 nm (in CCCCOCCCC) and 396 nm (in CCOC(C)=O).

Take `COc1ccccc1NC1=CC(=O)c2ccccc2C1=O`: the absorption maximum (in CCCCCC) stood at 468 nm and the absorption maximum (in CO) was 476 nm.

As for `CCN(CC)c1ccc2cc(/C=C/c3cccc[n+]3CCCS(=O)(=O)[O-])c(=O)oc2c1`, the absorption maximum came out at 513 nm (in C1CCOC1); 486 nm (in CC#N); 530 nm (in CC(C)=O); 494 nm (in CS(C)=O); 487 nm (in Cc1ccccc1); 481 nm (in O). For the setting “in OCC(O)CO”, this compound had an absorption maximum of 496 nm.

Where the note is “in ClCCl”, `CC1=C(c2ccccc2)C(C)=[N+]2C1=C(c1c(-c3ccccn3)nc3ccccn13)c1c(C)c(-c3ccccc3)c(C)n1[B-]2(F)F` returned an absorption maximum of 548 nm.

On to `C(=C\c1nc2ccccc2s1)/c1ccccc1`, for which the absorption maximum runs as follows: (in C1CCCCC1) 340 nm; (in CO) 340 nm.

`c1ccc2c(c1)-c1ccccc1C21c2ccccc2-c2c1c1c3ccccc3ccc1c1ccccc21`: the absorption maximum (in C1CCOC1) was 377 nm.

The compound `F[B-]1(F)n2cccc2C(c2ccccc2)=C2C=CC=[N+]21` displayed an absorption maximum (in Cc1ccccc1) of 503 nm and an absorption maximum (in ClCCl) of 500 nm.

In the case of `CCC1=C(C)C2=C(c3c(C)cc(C)nc3-c3cccs3)c3c(C)c(CC)c(C)n3[B-](F)(F)[N+]2=C1C`, the absorption maximum runs as follows: (in C1CCCCC1) 532 nm; (in C1CCOC1) 532 nm; (in C1COCCO1) 533 nm; (in CC#N) 530 nm; (in CCCCCC) 531 nm; (in CCO) 531 nm. Besides, the absorption maximum by setting is: (in CCOC(C)=O) 531 nm; (in CCOCC) 530 nm; (in CN(C)C=O) 532 nm; (in CS(C)=O) 534 nm; (in Cc1ccccc1) 533 nm; (in ClC(Cl)(Cl)Cl) 534 nm. Besides, the absorption maximum (in ClC(Cl)Cl) is 535 nm.

As to `Nc1cccc2c1-c1ccccc1C2=O`, the absorption maximum (in C1CCCCC1) is 427 nm, the absorption maximum (in CC#N) was determined as 451 nm, the absorption maximum (in CCO) stood at 458 nm and the absorption maximum (in c1ccccc1) is reported as 440 nm.

On to `CC(C)c1cc(C(C)C)c(B2c3ccccc3Oc3cc(N4c5ccccc5C(C)(C)c5ccccc54)ccc32)c(C(C)C)c1`, for which the absorption maximum (in Cc1ccccc1) is 436 nm.

Compound `N#Cc1c(N2CCCCC2)cc(-c2ccc3c(c2)OCO3)c2c1-c1cccc3cccc-2c13` showed an absorption maximum (in O) of 429 nm.

As for `Cc1ccc(/C=C(\c2ccccc2)c2nc3ccccc3s2)cc1`, the absorption maximum came to 340 nm (in C1CCCCC1) and 345 nm (in CO).

As for `CN1C(=CC2=C([O-])C(=Cc3sc4ccccc4[n+]3C)C2=C(C#N)C#N)Sc2ccccc21`, where the note is “in ClC(Cl)Cl”, the absorption maximum turned out to be 703 nm.

Regarding `CC(C)(C)c1ccc(-c2cc3c4c(c2)CCc2cc(-c5ccc(C(C)(C)C)cc5)cc(c2-4)CC3)cc1`, where the note is “in ClC(Cl)Cl”, the absorption maximum was 329.71 nm.

As for `Cc1ccc(C)c(C)c1`, the absorption maximum (in C1CCCCC1) turned out to be 263.78 nm.

As to `Cc1ccc(C)cc1`, the absorption maximum (in C1CCCCC1) was found to be 262.88 nm.

Regarding `c1ccc(N(c2ccccc2)c2ccc(-c3cccc4nc5ccccc5cc34)cc2)cc1`, the absorption maximum is, setting by setting: (in C1CCOC1) 391 nm; (in CC#N) 390 nm; (in CC(C)OC(C)C) 389 nm; (in CCCCCC) 386 nm; (in CCCCOCCCC) 390 nm; (in CCN(CC)CC) 389 nm. In addition, the absorption maximum is recorded as 390 nm (in CCOC(C)=O), 386 nm (in CCOCC), 390 nm (in CN(C)C=O) and 396 nm (in ClCCl).

`C1=CC2=CC=CC3C=c4c(cc5cccc6cccc4c65)C(=C1)C23` (centres undefined) registered an absorption maximum (in ClCCl) of 543 nm.

The compound `CCn1c2ccccc2c2cc(-c3cc(-c4ccc5c(c4)c4ccccc4n5CC)nc(-c4ccc(OC)cc4)n3)ccc21` returned an absorption maximum (in C1CCOC1) of 365 nm; an absorption maximum (in CCOC(C)=O) of 362 nm; an absorption maximum (in CN(C)C=O) of 369 nm; an absorption maximum (in Cc1ccccc1) of 363 nm; an absorption maximum (in ClCCl) of 364 nm.

With `CCOC(=O)c1sc2nc(-c3ccccc3)c(C)c(C#N)c2c1N`, the absorption maximum is, setting by setting: (in C1COCCO1) 420 nm; (in CC#N) 412 nm; (in CCO) 423 nm; (in CCOC(C)=O) 419 nm; (in ClC(Cl)Cl) 416 nm; (in c1ccccc1) 418 nm.
